In the NIST ThermoML archive (doi:10.1021/acs.jced.7b00171):
Numbers after ± are expanded uncertainties.

Experiment: Solid-liquid equilibrium temperature
Conditions: Crystal 1, visual observation

C1CCCCC1 [cyclohexane]
Solid-liquid equilibrium temperature (1310 kPa): 280.31 ± 0.26 K
Solid-liquid equilibrium temperature (3430 kPa): 281.53 ± 0.34 K
Solid-liquid equilibrium temperature (5310 kPa): 282.52 ± 0.41 K
